Test results from ChEMBL document CHEMBL1133196, “A model for ZnII-containing-beta-lactamase: synthesis, X-ray crystal structure of a zinc(II) complex bearing thiol group and hydrolysis of phosphate diester” (Bioorg Med Chem Lett, 2000).

Experiments:
[1] = Rate of hydrolysis of nitrocefin by compound was evaluated in water; type: ADME; conditions: buffer
[2] = Dissociation constant was evaluated; type: physicochemical

| SMILES | Activity [1] | pKa [2] |
| --- | --- | --- |
| [Cl-].[S-]CCN(Cc1ccccn1)Cc1ccccn1.[Zn+2] | 6.5e-09 M⁻¹ s⁻¹ | 9 |
| Cl.Cl.[Zn+2].c1ccc(CNCc2ccccn2)nc1 | 2.52e-08 M⁻¹ s⁻¹ | 9.4 |
